Assay results as given in ChEMBL document CHEMBL2086385, “Synthesis and antimicrobial evaluation of L-phenylalanine-derived C5-substituted rhodanine and chalcone derivatives containing thiobarbituric acid or 2-thioxo-4-thiazolidinone” (2012).
≈ marks a conversion by molar mass, not a printed value.

Columns and labels:
Assay type in all cases: functional
Staphylococcus aureus [1] = experiment: Ratio of norfloxacin MIC to compound MIC for quinolone-resistant Staphylococcus aureus CCARM 3505 clinical isolate
Escherichia coli = experiment: Antibacterial activity against Escherichia coli CCARM 1356 after 24 hrs by broth microdilution method; settings: CCARM 1356, 24 h
Staphylococcus aureus [2] = experiment: Ratio of norfloxacin MIC to compound MIC for quinolone-resistant Staphylococcus aureus CCARM 3519 clinical isolate
Staphylococcus aureus [3] = experiment: Antibacterial activity against Staphylococcus aureus KCTC 209 after 24 hrs by broth microdilution method; settings: KCTC 209, 24 h
Staphylococcus aureus [4] = experiment: Ratio of norfloxacin MIC to compound MIC for methicillin-resistant Staphylococcus aureus CCARM 3167 clinical isolate
Staphylococcus aureus [5] = experiment: Antibacterial activity against Staphylococcus aureus KCTC 503 after 24 hrs by broth microdilution method; settings: KCTC 503, 24 h
Staphylococcus aureus [6] = experiment: Antibacterial activity against quinolone-resistant Staphylococcus aureus CCARM 3519 clinical isolate after 24 hrs by broth microdilution method; settings: CCARM 3519, 24 h
Staphylococcus aureus [7] = experiment: Antibacterial activity against methicillin-resistant Staphylococcus aureus CCARM 3506 clinical isolate after 24 hrs by broth microdilution method; settings: CCARM 3506, 24 h
Staphylococcus aureus [8] = experiment: Antibacterial activity against Staphylococcus aureus RN4220 after 24 hrs by broth microdilution method; settings: RN4220, 24 h
Staphylococcus aureus [9] = experiment: Antibacterial activity against methicillin-resistant Staphylococcus aureus CCARM 3167 clinical isolate after 24 hrs by broth microdilution method; settings: CCARM 3167, 24 h
Staphylococcus aureus [10] = experiment: Antibacterial activity against quinolone-resistant Staphylococcus aureus CCARM 3505 clinical isolate after 24 hrs by broth microdilution method; settings: CCARM 3505, 24 h
Staphylococcus aureus [11] = experiment: Ratio of norfloxacin MIC to compound MIC for methicillin-resistant Staphylococcus aureus CCARM 3506 clinical isolate

SMILES	Ratio (Staphylococcus aureus [1])	MIC (Escherichia coli)	Ratio (Staphylococcus aureus [2])	MIC (Staphylococcus aureus [3])	Ratio (Staphylococcus aureus [4])	MIC (Staphylococcus aureus [5])	MIC (Staphylococcus aureus [6])	MIC (Staphylococcus aureus [7])	MIC (Staphylococcus aureus [8])	MIC (Staphylococcus aureus [9])	MIC (Staphylococcus aureus [10])	Ratio (Staphylococcus aureus [11])
O=C(O)[C@H](Cc1ccccc1)N1C(=O)/C(=C\c2ccc(OCc3ccc(Cl)cc3Cl)cc2)SC1=S	2	> 64 µg/mL	2	8 µg/mL (≈ 14.7 µM)	2	8 µg/mL (≈ 14.7 µM)	8 µg/mL (≈ 14.7 µM)	16 µg/mL (≈ 29.4 µM)	2 µg/mL (≈ 3.67 µM)	8 µg/mL (≈ 14.7 µM)	8 µg/mL (≈ 14.7 µM)	2
O=C(O)[C@H](Cc1ccccc1)N1C(=O)/C(=C\c2ccc(OCc3cccc(Br)c3)cc2)SC1=S	2	> 64 µg/mL	2	4 µg/mL (≈ 7.21 µM)	2	4 µg/mL (≈ 7.21 µM)	8 µg/mL (≈ 14.4 µM)	4 µg/mL (≈ 7.21 µM)	2 µg/mL (≈ 3.61 µM)	4 µg/mL (≈ 7.21 µM)	4 µg/mL (≈ 7.21 µM)	2
O=C(O)[C@H](Cc1ccccc1)N1C(=O)/C(=C\c2ccc(OCc3ccc(Br)cc3)cc2)SC1=S	2	> 64 µg/mL	2	8 µg/mL (≈ 14.4 µM)	2	8 µg/mL (≈ 14.4 µM)	8 µg/mL (≈ 14.4 µM)	8 µg/mL (≈ 14.4 µM)	2 µg/mL (≈ 3.61 µM)	4 µg/mL (≈ 7.21 µM)	8 µg/mL (≈ 14.4 µM)	2
Cc1ccc(COc2ccc(/C=C3\SC(=S)N([C@@H](Cc4ccccc4)C(=O)O)C3=O)cc2)cc1	2	> 64 µg/mL	2	8 µg/mL (≈ 16.3 µM)	2	16 µg/mL (≈ 32.7 µM)	8 µg/mL (≈ 16.3 µM)	8 µg/mL (≈ 16.3 µM)	4 µg/mL (≈ 8.17 µM)	4 µg/mL (≈ 8.17 µM)	8 µg/mL (≈ 16.3 µM)	2
O=C(O)[C@H](Cc1ccccc1)N1C(=O)/C(=C\c2ccc(OCc3ccccc3)cc2)SC1=S	2	> 64 µg/mL	2	8 µg/mL (≈ 16.8 µM)	2	8 µg/mL (≈ 16.8 µM)	8 µg/mL (≈ 16.8 µM)	8 µg/mL (≈ 16.8 µM)	2 µg/mL (≈ 4.21 µM)	4 µg/mL (≈ 8.41 µM)	4 µg/mL (≈ 8.41 µM)	2
